Data from BigSolDB 2.1.

CC(C)(C)C(=O)C(Oc1ccc(Cl)cc1)n1ccnc1 (centres undefined)
solubility (mole fraction)
Conditions	278.15 K	283.15 K	288.15 K	293.15 K	298.15 K	303.15 K	308.15 K	313.15 K	318.15 K
in ethanol	0.0801	0.0952	0.112	0.133	0.159	0.184	0.215	0.249	0.287
in n-butanol	0.0804	0.0957	0.112	0.132	0.156	0.18	0.209	0.243	0.282
in n-heptanol	0.0686	0.0797	0.0937	0.111	0.131	0.152	0.18	0.21	0.245
in n-hexanol	0.073	0.0858	0.0999	0.119	0.141	0.164	0.192	0.223	0.263
in n-pentanol	0.0781	0.0912	0.107	0.127	0.15	0.174	0.204	0.238	0.273
in n-propanol	0.0842	0.0998	0.117	0.139	0.165	0.19	0.22	0.254	0.29
